US20240174618A1, “SUBSTITUTED (2-HETEROARYLOXYPHENYL)SULFONATES, SALTS THEREOF AND THEIR USE AS HERBICIDAL AGENTS” (Bayer Aktiengesellschaft, priority 2021, published 2024)

Tests used:
Type in all cases: in vivo
Stellaria media (STEME) = assay: B. Herbicidal post-emergence efficacy, STEME
Summary of the method: (§1)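 Readout: visual % kill vs untreated, ~3 wk post-spray. Plants in sandy loam pots, treated at one-leaf stage; spray = WP/EC in water + 0.5% additive, 600 L/ha, dose ≤1280 g/ha.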

Veronica persica (VERPE) = assay: B. Herbicidal post-emergence efficacy, VERPE
Summary of the method: as §1

[1] = tested on: Amaranthus retroflexus (AMARE); assay: B. Herbicidal post-emergence efficacy, AMARE
Summary of the method: as §1

[2] = tested on: Echinochloa crus-galli (ECHCG); assay: B. Herbicidal post-emergence efficacy, ECHCG; conditions: rated visually after about 3 weeks
Summary of the method: as §1

[3] = tested on: Alopecurus myosuroides (ALOMY); assay: A. Herbicidal pre-emergence efficacy, ALOMY; conditions: 1280 g/ha; scored visually after about 3 weeks vs untreated controls
Source text: Seeds of mono- and dicotyledonous weed plants were placed in plastic pots in sandy loam soil (doubly sown with one species each of mono- or dicotyledonous weed plants per pot) and covered with soil. The compounds of the invention, formulated in the form of wettable powders (WP) or as emulsion concentrates (EC), were then applied onto the surface of the covering soil as aqueous suspension or emulsion with addition of 0.5% additive at a water application rate of 600 liters per hectare (converted). After the treatment, the pots were placed in a greenhouse and kept under good growth conditions for the test plants. After about 3 weeks, the efficacy of the preparations was scored visually in comparison with untreated controls as percentages.
For example, • 100% efficacy=plants have died, • 0% efficacy=like untreated control plants.
Tables A1a to A12c below show the effects of selected compounds of the general formula (I) according to table 1 on various harmful plants at an application rate corresponding to 1280 g/ha or less, which were obtained by the experimental procedure mentioned above.

[4] = tested on: Abutilon theophrasti (ABUTH); assay: C. Herbicidal pre-emergence efficacy, ABUTH; conditions: scored after about 3 weeks
Source text: Seeds of monocotyledonous and dicotyledonous weed plants and crop plants were placed in plastic or organic planting pots and covered with soil. The compounds of the invention, formulated in the form of wettable powders (WP) or as emulsion concentrates (EC), were then applied to the surface of the covering soil as aqueous suspension or emulsion with addition of 0.5% additive at a water application rate equivalent to 600 l/ha (converted). After the treatment, the pots were placed in a greenhouse and kept under good growth conditions for the test plants. After about 3 weeks, the efficacy of the preparations was scored visually in comparison with untreated controls as percentages. For example, • 100% efficacy=plants have died, • 0% efficacy=like untreated control plants.
Tables C1a to C14b below show the effects of selected compounds of the general formula (I) according to table 1 on various harmful plants at an application rate corresponding to 320 g/ha or less, which were obtained by the experimental procedure mentioned above.

Viola tricolor (VIOTR) = assay: C. Herbicidal pre-emergence efficacy, VIOTR
Summary of the method: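 Pre-emergence test: formulated compounds sprayed as aqueous suspension or emulsion with 0.5% additive at 600 l/ha onto soil covering sown seeds, at rates corresponding to 320 g/ha or less. After about 3 weeks in greenhouse, efficacy scored visually as percent versus untreated controls (100% = plants dead).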

SMILES | Post-emergence efficacy against STEME (Stellaria media (STEME); 80 g/ha) [%] | Post-emergence efficacy against STEME (Stellaria media (STEME); 320 g/ha) [%] | Post-emergence efficacy against STEME (Stellaria media (STEME); 1280 g/ha) [%] | Post-emergence efficacy against VERPE (Veronica persica (VERPE); 80 g/ha) [%] | Post-emergence efficacy against VERPE (Veronica persica (VERPE); 320 g/ha) [%] | Post-emergence efficacy against VERPE (Veronica persica (VERPE); 1280 g/ha) [%] | Post-emergence efficacy against AMARE ([1]; 80 g/ha) [%] | Post-emergence efficacy against AMARE ([1]; 320 g/ha) [%] | Post-emergence efficacy against AMARE ([1]; 1280 g/ha) [%] | Post-emergence efficacy against ECHCG in % ([2]; 320 g/ha) [%] | Post-emergence efficacy against ECHCG in % ([2]; 1280 g/ha) [%] | Pre-emergence efficacy against ALOMY [3] [%] | Pre-emergence efficacy against ABUTH ([4]; 80 g/ha) [%] | Pre-emergence efficacy against ABUTH ([4]; 320 g/ha) [%] | Pre-emergence efficacy against VIOTR in % (Viola tricolor (VIOTR); application rate 80 g/ha) [%] | Pre-emergence efficacy against VIOTR in % (Viola tricolor (VIOTR); application rate 320 g/ha) [%]
Cc1cccc(Oc2ncc(Cl)cn2)c1OS(=O)(=O)CCC(F)(F)F [Example I-29] | 90 | 100 | 100 | 90 | 90 | 100 | 90 | 100 | 100 | 90 | 100 | 90 | – | – | – | –
O=S(=O)(CCCC(F)(F)F)Oc1c(Cl)cccc1Oc1ncc(Br)cn1 [Example I-34] | 100 | 100 | 100 | 100 | 100 | 100 | 100 | 100 | 100 | 90 | 90 | – | 80 | 90 | 100 | 100
C=CCS(=O)(=O)Oc1ccccc1Oc1ncc(Cl)cn1 [Example I-36] | – | – | 100 | – | 90 | 100 | – | 90 | 100 | – | – | – | – | 90 | – | –
C=CCCS(=O)(=O)Oc1c(F)cccc1Oc1ncc(Cl)cn1 [Example I-50] | – | – | – | – | 90 | 90 | 90 | 90 | 100 | – | 90 | – | – | 100 | – | 90
COCCS(=O)(=O)Oc1c(F)cccc1Oc1ncc(Cl)cn1 [Example I-52] | – | – | 90 | – | – | – | – | 90 | 90 | – | 90 | – | 80 | 100 | 100 | 100
O=S(=O)(CCC1CC1)Oc1c(F)cccc1Oc1ncc(Cl)cn1 [Example I-55] | 90 | 90 | 90 | 90 | 90 | 90 | 90 | 90 | 90 | 90 | 90 | – | – | – | – | 100
O=S(=O)(CCC(F)=C(F)F)Oc1c(F)cccc1Oc1ncc(Cl)cn1 [Example I-70] | – | – | – | – | – | – | – | – | – | – | – | – | 80 | 100 | 100 | 100
O=S(=O)(CCC(F)=C(F)F)Oc1c(Cl)cccc1Oc1ncc(Cl)cn1 [Example I-73] | 90 | 100 | 100 | 100 | 100 | 100 | 100 | 100 | 100 | 90 | 100 | – | – | 90 | – | 100
N#Cc1cccc(Oc2ncc(Cl)cn2)c1OS(=O)(=O)CCCC(F)(F)F [Example I-81] | – | – | – | – | – | – | – | – | – | – | – | – | – | 100 | 100 | 100
